From patent US20110016537A1, “Cellular model of tauopathies for lead identification and drug discovery” (Georg-August-Universitat Gottingen Stifung offentl, priority 2003, published 2011)

Experiments:
[1] = tested on: SHSY5Y neuroblastoma cells; experiment: Apoptosis detection (TUNEL, activated caspase-3 immunolabeling) in SHSY5Y cells; type: cell-based, human; details: for cells showing signs of apoptosis (TUNEL): 48 h. post transfection
Description: (§1) In order to analyse apoptosis induction in SHSY5Y neuroblastoma cells transfected with wild-type and triple mutant tau, the TUNEL method was used to label fragmented nuclear DNA, a characteristic marker of apoptosis. This was combined with the assessment of a second pathomorphological criteria: shrunken cell body with sparse cytosol and rounded cell morphology. Such a combination of criteria is considered sufficient to identify positively the occurrence of apoptosis (Stadelmann and Lassmann (2000) Cell Tissue Res. 301, 19-31). Since 48 hours after transfection a significant decrease in cell number and apparent cell degeneration is observed, this timepoint was chosen for the comparative analysis. At this timepoint the mode of degeneration, if apoptotic, should have been obvious. […] In FIG. 5a, apoptotic and non-apoptotic M123-transfected cells are shown, as well as a positive 50 nM staurosporin-treated neuroblastoma control. […] Activated caspase-3 immunolabeling, however, detected 18.66±0.93% apoptotic cells in M123 transfected neuroblastoma cells vs. 3.62±1.87% in wild-type transfected cells (p<0.01, Mann-Whitney U-test). The reason for this atypical apoptosis presentation in our system is unknown and awaits further elucidation. Next, in order to assess the real biological significance of apoptosis in the process of cell elimination, specific cell-permeable caspase-3 inhibitor and cytochrome c release inhibitor (both from Calbiochem, Germany) were used. Cells were treated 24 h. post transfection immediately after counting their reference number and incubated with apoptosis inhibitors until 60 h. post transfection in order to cover the time window with the highest decrease in cell number. […]

CHO cells [2] = experiment: Morphological aggregate formation after transfection in CHO cells; type: cell-based, Chinese hamster; details: 24 hrs post transfection
Experimental: On the contrary—in areas with bulky aggregation a deficit of the normal cytoskeletal configuration was observed. In order to visualize a difference in the biophysical properties of tau and aggregating mutants, FRAP (fluorescent recovery after photobleaching) analysis was performed in CHO-cells 24 hours after transfection, using wild-type tau and the triple (M123) mutant. Tau tagged with GFP represents a perfect tool for aggregation examination in living cells in real time. Apparent differences were found between wild-type tau and the triple mutant.
Transfection of cells was performed, using the Effectene Transfection Kit (Qiagen, Germany) according to the manufacturers instructions. Following addition of 4-8 μl enhancer solution, 0.5-1 μg DNA were incubated with 10 μl Effectene and 85 μl transfection buffer. All plasmids were purified using EndoFree Maxi Kit (Qiagen, Germany).
Confocal imaging was performed with a Leica TCS SP2 confocal system fitted with an AOBS (acousto-optical beam splitter) (Leica, Germany). The objectives used were 63× water or oil immersion; adjustments were as follows: Beam Expander 3, PMT—600-700 V, pinhole 1-1.4 airy disc, zoom—variable. Luminophore excitation was performed with an Argon-ion laser at 488 nm (for GFP), GreNe laser at 543 nm (for Cy3) and HeNe 643 nm (for Cy5).

[3] = tested on: SHSY5Y neuroblastoma cells; experiment: Phosphoepitope immunocytochemistry (AT8, AT100, AT180) in SHSY5Y neuroblastoma cells; type: cell-based, human
Experimental: In order to examine the neurotoxicity of the mutant tau variants in human neuronal cell line, SHSY5Y neuroblastomas were used and the cell number of each preparation at 48 and 72 hours post transfection was normalized to the cell number in the same dish at 24 hours. […] The same effect was observed by the double mutants. Further, the presence of two specific pathological phosphoepitopes was tested using phosphospecific antibodies—AT8 (S202/T205 specific) and AT100 (T212/S214), the latter being exclusively specific for Alzheimer's disease NFTs and generally considered as the only AD-specific antibody by experts in the field of neuropathology. […] In the mutants (especially in the double and triple mutants) there was a very strong AT8 labeling, reaching 83.24±5.45% in M123 (FIG. 4c). […] This was accompanied by early phosphorylation, colocalizing with the initial tau aggregates. […] This mutant completely lacked a fragment which contains most phosphorylation sites of the projection domain (including the corresponding sites for AT8, AT100, AT180, AT270), thus confirming the independence of aggregation and phosphorylation. […] Another phosphoepitope that is highly specific for AD—T212/S214 (recognized by AT100 antibody), was present especially in double and triple mutants (FIG. 4d). In contrast to AT8, this immunolabeling was not observed in all aggregates, but only in those with bulky rounded or oval shape. […] Obviously, the formation of the T212/S214 phosphoepitope requires, apart from S202/T205 phosphoepitope formation (Schneider et al. (1999) Biochemistry 38, 3549-3558), also a specific conformational modification, apparently achieved with increase of mutant epitope number. In the M123 mutant 22.13±2.87% were also AT180 immunopositive (phosphoepitope T231) vs. none in wild-type tau transfectants (not shown). In order to assess the relative contribution of the aggregation, S202/T205 and T212/S214 phosphorylation to cell toxicity, multiple correlation analyses were performed. […]

CHO cells [4] = experiment: AT8-detected phosphorylation in CHO cells; type: cell-based, Chinese hamster; details: CHO cells (data not shown)
[5] = tested on: SHSY5Y neuroblastoma cells; experiment: Cell survival of M123-transfected SHSY5Y cells with apoptosis inhibitors; type: cell-based, human; details: inhibitors on M123-transfected cells from 24 h. until 60 h. post transfection
Description: as §1, with “elucidation.” for “elucidation. Next, in order to assess the real biological significance of apoptosis in the process of cell elimination, specific cell-permeable caspase-3 inhibitor and cytochrome c release inhibitor (both from Calbiochem, Germany) were used. Cells were treated 24 h. post transfection immediately after counting their reference number and incubated with apoptosis inhibitors until 60 h. post transfection in order to cover the time window with the highest decrease in cell number.”

Compound | cells showing signs of apoptosis (TUNEL) [1] | formation of morphologically apparent aggregates (CHO cells [2]) | AT100 (T212/S214) immunolabeling [3] | AT180 (phosphoepitope T231) immunopositive cells [3] | AT8 (S202/T205) immunolabeled cells ([3]; 36 h. after transfection) [%] | AT8-detected phosphorylation (CHO cells [4]) | apoptotic cells by activated caspase-3 immunolabeling [1] [%] | cell survival [5] [%]
CN[C@@H]1C[C@H]2O[C@@](C)([C@@H]1OC)n1c3ccccc3c3c4c(c5c6ccccc6n2c5c31)C(=O)NC4 [staurosporin] | TUNEL-positive nuclei | – | – | – | – | – | – | –
wild-type tau: wild-type human tau 441, SEQ ID NO.:25, used as control [reference compound] | 5.97±1.54% | normal MT (microtubule) association without aggregates | did not label | none | 9.17±2.3 | only a slight pattern | 3.62±1.87 | 87.86±12.4
